Data published in the NIST ThermoML archive (doi:10.1016/j.fluid.2014.02.004).

Test: osmotic coefficient (dimensionless); mn = molality of the nth substance listed, in mol/kg
Settings: 298.15 K, 101 kPa, Liquid, isopiestic method

NCCC(=O)O [3-aminopropanoic acid] + O
Settings | osmotic coefficient
m1 = 0.1408 | 0.9912
m1 = 0.2482 | 0.9892
m1 = 0.335 | 0.988
m1 = 0.452 | 0.9882
m1 = 0.6148 | 0.9901
m1 = 0.6813 | 0.9905
m1 = 0.9542 | 0.9934
m1 = 1.43 | 1.0056

NCCCC(=O)O [4-aminobutanoic acid] + O
Settings | osmotic coefficient
m1 = 0.1412 | 0.9884
m1 = 0.249 | 0.986
m1 = 0.3355 | 0.9866
m1 = 0.453 | 0.986
m1 = 0.6155 | 0.9889
m1 = 0.6809 | 0.991
m1 = 0.944 | 1.0041
m1 = 1.402 | 1.026

NCCCCC(=O)O [5-aminovaleric acid] + O
Settings | osmotic coefficient
m1 = 0.1414 | 0.987
m1 = 0.2493 | 0.9848
m1 = 0.3362 | 0.9845
m1 = 0.4531 | 0.9858
m1 = 0.618 | 0.9849
m1 = 0.6834 | 0.9874
m1 = 0.9461 | 1.0019
m1 = 1.397 | 1.029

NCCCCCC(=O)O [6-aminohexanoic acid] + O
Settings | osmotic coefficient
m1 = 0.1411 | 0.9889
m1 = 0.2493 | 0.9848
m1 = 0.3366 | 0.9833
m1 = 0.4538 | 0.9843
m1 = 0.617 | 0.9865
m1 = 0.6826 | 0.9886
m1 = 0.9388 | 1.0097
m1 = 1.388 | 1.036
